Experiments:
[1] = Metabolic stability of the compound in rat hepatocytes assessed as compound remaining after 4 hrs; assay type: ADME, cell-based, Hepatocyte; conditions: read-out: Stability
[2] = Half life in rat at 5 mg/kg, po; assay type: ADME, organism-based; set-up: dose 5 mg/kg, route oral; conditions: in vivo
[3] = Metabolic stability of the compound in dog hepatocytes assessed as compound remaining after 4 hrs; assay type: ADME, cell-based, Canis lupus familiaris, Hepatocyte; conditions: read-out: Stability
[4] = Metabolic stability of the compound in monkey hepatocytes assessed as compound remaining after 4 hrs; assay type: ADME, cell-based, Macaca mulatta, Hepatocyte; conditions: rhesus monkey, read-out: Stability
[5] = Clearance in rat at 5 mg/kg, po; assay type: ADME, organism-based; set-up: dose 5 mg/kg, route oral; conditions: in vivo
[6] = Antiviral activity against wild type HIV1 BH10 infected human MT4 cells assessed as inhibition of virus-induced cytopathogenicity; assay type: functional, cell-based, Human immunodeficiency virus type 1 BH10; conditions: Human immunodeficiency virus 1, MT4
[7] = Metabolic stability of the compound in human hepatocytes assessed as compound remaining after 4 hrs; assay type: ADME, cell-based, Hepatocyte; conditions: read-out: Stability
[8] = Antiviral activity against wild type HIV1 BH10 with reverse transcriptase K103N/Y181C double mutant infected human MT4 cells assessed as inhibition of virus-induced cytopathogenicity; assay type: functional, cell-based, Human immunodeficiency virus type 1 BH10; conditions: Human immunodeficiency virus 1, MT4
[9] = Antiviral activity against wild type HIV1 BH10 with reverse transcriptase K103N single mutant infected human MT4 cells assessed as inhibition of virus-induced cytopathogenicity; assay type: functional, cell-based, Human immunodeficiency virus type 1 BH10; conditions: Human immunodeficiency virus 1, MT4
[10] = Antiviral activity against wild type HIV1 BH10 with reverse transcriptase Y181C single mutant infected human MT4 cells assessed as inhibition of virus-induced cytopathogenicity; assay type: functional, cell-based, Human immunodeficiency virus type 1 BH10; conditions: Human immunodeficiency virus 1, MT4
[11] = Oral bioavailability in rat at 5 mg/kg; assay type: ADME, organism-based; conditions: in vivo

SMILES	remaining at 4 h [1]	half-life [2]	remaining at 4 h [3]	remaining at 4 h [4]	CL/F [5]	EC50 [6]	remaining at 4 h [7]	EC50 [8]	EC50 [9]	EC50 [10]	bioavailability [11]
COP(=O)(c1ccccc1)c1c(C(N)=O)[nH]c2ccc(Cl)cc12 (racemic)	100%	1.19 h	100%	49%	2.85 mL/min/kg	0.7 nM	99%	447 nM	6.8 nM	10.1 nM	107%
CO[P@@](=O)(c1ccccc1)c1c(C(N)=O)[nH]c2ccc(Cl)cc12						182 nM		> 1250 nM	> 1250 nM	> 1250 nM	
NC(=O)c1[nH]c2ccc(Cl)cc2c1P(=O)(O)c1ccccc1						> 1250 nM					
CO[P@](=O)(c1ccccc1)c1c(C(N)=O)[nH]c2ccc(Cl)cc12						0.1 nM		137 nM	1.2 nM	3.6 nM	
CCOP(=O)(c1ccccc1)c1c(C(N)=O)[nH]c2ccc(Cl)cc12 (stereo unspecified)						1.2 nM		> 1250 nM	16.4 nM	13.7 nM	
CN(C)P(=O)(c1ccccc1)c1c(C(N)=O)[nH]c2ccc(Cl)cc12 (stereo unspecified)						13.9 nM		> 1250 nM	> 1250 nM	467 nM	
CP(=O)(c1ccccc1)c1c(C(N)=O)[nH]c2ccc(Cl)cc12 (stereo unspecified)						0.8 nM		> 1250 nM	1380 nM	266 nM	
COP(=S)(c1ccccc1)c1c(C(N)=O)[nH]c2ccc(Cl)cc12 (stereo unspecified)						0.4 nM		> 1250 nM	89.9 nM	41.4 nM	
NC(=O)c1[nH]c2ccc(Cl)cc2c1P(=O)(OCc1ccccc1)c1ccccc1 (stereo unspecified)						33.7 nM		> 1250 nM	> 1250 nM	> 1250 nM	
NC(=O)c1[nH]c2ccc(Cl)cc2c1P(=O)(c1ccccc1)c1ccccc1						> 1250 nM					
